Assay results taken from patent publication US20070287719A1, “Salts, Prodrugs and Formulations of 1-[5-(4-Amino-7-Isopropyl-7H-Pyrrolo[2,3-D]Pyrimidine-5-Carbonyl)-2-Methoxy-Phenyl]-3-(2,4-Dichloro-Phenyl)-Urea” (Pfizer Inc, priority 2005, published 2007).

Experiments:
[1] = Hygroscopicity of salt forms; assay type: physicochemical; conditions: at 90 percent relative humidity at ambient temperature
[2] = In vitro dissolution test in Model Fasted Duodenal (MFD) solution; assay type: physicochemical; conditions: 1.8 mL MFD; 0.36 mg free base active agent or 1.44 mg active agent in spray dry dispersion
Description: The compositions comprising the active agent and concentration-enhancing polymer provide enhanced concentration of the dissolved inhibitor in in vitro dissolution tests. It has been determined that enhanced drug concentration in in vitro dissolution tests in Model Fasted Duodenal (MFD) solution or Phosphate Buffered Saline (PBS) is a good indicator of in vivo performance and bioavailability. An appropriate PBS solution is an aqueous solution comprising 20 mM sodium phosphate (Na2HPO4), 47 mM potassium phosphate (KH2PO4), 87 mM sodium chloride (NaCl), and 0.2 mM potassium chloride (KCl), adjusted to pH 6.5 with sodium hydroxide (NaOH). An appropriate MFD solution is the same PBS solution wherein additionally is present 7.3 mM sodium taurocholic acid and 1.4 mM of 1-palmitoyl-2-oleyl-sn-glycero-3-phosphocholine. In particular, a composition of the present invention can be dissolution-tested by adding it to MFD or PBS solution and agitating to promote dissolution. […]
The concentration of dissolved inhibitor is typically measured as a function of time by sampling the test medium and plotting inhibitor concentration in the test medium vs. time so that the MDC can be ascertained. The MDC is taken to be the maximum value of dissolved inhibitor measured over the duration of the test. […]

[3] = Plasma pharmacokinetics after oral dosing, rat; assay type: in vivo; conditions: Rat (n = 4), 100 mg Active Agent/kg
Description: (§1) Alternatively, the compositions of the present invention, when dosed orally to a human or other mammal, provide an AUC inhibitor concentration in the blood (herein referred to as a plasma AUC) that is at least about 4 fold that observed when a control composition comprising all equivalent quantity of undispersed drug is dosed. It is noted that such compositions can also be said to have a relative bioavailability of about 4. Preferably, the compositions of the present invention, when dosed orally to a human or other mammal, provide an AUC inhibitor concentration in the blood that is at least about 6 fold, more preferably at least about 10 fold, and even more preferably at least about 20 fold that observed when a control composition comprising an equivalent quantity of undispersed drug is dosed. […] An exemplary dosing vehicle would be a suspension solution of water containing 0.5 wt percent […] (such as METHOCEL) and 0.16 wt percent of the surfactant polyoxyethylene 20 sorbitan monooleate (such as TWEEN 80). Thus, the compositions of the present invention can be evaluated in either in vitro or in vivo tests, or both. […]
(§2) Relative bioavailability of inhibitor in the dispersions of the present invention can be tested in vivo in animals or humans using conventional methods for making such a determination. […] In an in vivo crossover study a “test composition” of inhibitor and polymer is dosed to half a group of test subjects and, after an appropriate washout period (e.g., one week) the same subjects are dosed with a “control composition” that comprises an equivalent quantity of inhibitor as the “test composition” (but with no polymer present). […] The relative bioavailability is measured as the concentration in the blood (serum or plasma) versus time area under the curve (AUC) determined for the test group divided by the AUC in the blood provided by the control composition. Preferably, this test/control ratio is determined for each subject, and then the ratios are averaged over all subjects in the study. […]

[4] = Plasma pharmacokinetics after oral dosing, dog; assay type: in vivo; conditions: Dog (n = 3), 30 mg Active Agent/kg
Description: as §1, §2

[5] = molecular target: T1, fully activated recombinant GST-TIE2 construct (Homo sapiens, UniProt Q02763); experiment: Tie-2 tyrosine kinase inhibition, GST-Tie-2 fusion protein, PGT plate ELISA; assay type: biochemical
T1 construct: made in house; host or cells: insect cells (baculovirus)
T1 sequence (Q02763 23-1124): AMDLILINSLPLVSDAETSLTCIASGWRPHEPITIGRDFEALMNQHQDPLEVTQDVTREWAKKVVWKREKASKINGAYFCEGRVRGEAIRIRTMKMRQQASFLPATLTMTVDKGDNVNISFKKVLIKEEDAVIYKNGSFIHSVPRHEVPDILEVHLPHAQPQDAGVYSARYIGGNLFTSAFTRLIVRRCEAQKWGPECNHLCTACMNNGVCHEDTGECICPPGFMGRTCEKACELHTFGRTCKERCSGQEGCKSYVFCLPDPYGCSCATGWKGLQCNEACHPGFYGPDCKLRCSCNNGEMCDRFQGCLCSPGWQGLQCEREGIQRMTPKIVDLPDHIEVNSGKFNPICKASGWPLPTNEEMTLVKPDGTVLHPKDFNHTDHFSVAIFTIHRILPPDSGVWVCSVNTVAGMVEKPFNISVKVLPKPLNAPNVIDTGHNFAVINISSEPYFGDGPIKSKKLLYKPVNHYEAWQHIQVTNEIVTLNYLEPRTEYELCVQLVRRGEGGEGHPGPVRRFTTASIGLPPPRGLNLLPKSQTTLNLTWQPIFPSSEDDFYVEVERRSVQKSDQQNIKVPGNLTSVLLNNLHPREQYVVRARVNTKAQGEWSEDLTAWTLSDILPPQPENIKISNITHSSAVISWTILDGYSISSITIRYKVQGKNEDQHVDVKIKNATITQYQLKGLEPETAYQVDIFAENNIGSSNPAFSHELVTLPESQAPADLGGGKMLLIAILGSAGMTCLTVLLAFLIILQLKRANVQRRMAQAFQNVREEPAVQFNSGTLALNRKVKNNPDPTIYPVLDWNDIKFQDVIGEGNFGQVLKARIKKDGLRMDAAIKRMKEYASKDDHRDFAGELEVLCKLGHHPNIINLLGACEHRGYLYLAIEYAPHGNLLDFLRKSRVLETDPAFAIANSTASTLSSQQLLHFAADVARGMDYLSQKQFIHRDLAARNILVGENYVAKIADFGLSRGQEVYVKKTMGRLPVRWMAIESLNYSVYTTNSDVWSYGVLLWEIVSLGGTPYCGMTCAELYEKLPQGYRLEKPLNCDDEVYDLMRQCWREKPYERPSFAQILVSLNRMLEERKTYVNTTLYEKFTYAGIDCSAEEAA
Description: (§3) The crystalline and non-crystalline forms and formulations of 1-[5-(4-Amino-7-isopropyl-7H-pyrrolo[2,3-d[pyrimidine-5-carbonyl)-2-methoxy-phenyl]-3-(2 4-dichloro-phenyl)-urea are selective inhibitors of the tyrosine kinases, Tie-2, TrkA and related family member TrkB. The potentcy of these forms and formulations of the present invention at the tyrosine kinases may be determined using the following assays.
Inhibition of Tie-2 tyrosine kinase activity is measured in 96-well Maxisorp plates (Nunc) coated with poly-Glu-Tyr (PGT 4:1 Sigma) by the addition of 100 μL/well of a 25 μg/mL solution of PGT in PBS. Plates are incubated at 37° C. overnight, and transferred to 4° C. until use. Prior to compound testing, appropriate dilutions of compounds are made in 96-well polypropylene plates. […] GST-Tie-2 would be previously isolated from insect cells infected with GST-Tie-2 baculoviruses, and used at concentrations determined to provide OD450 signals of approximately 1.0 in the presence of ATP and the absence of chemical inhibitors. […] The bound HRP-PY20 antibody can be detected by the addition of 70 μL/well TMB microwell substrate (KPL), and color development terminated by the addition of an equal volume of 0.9 M H2SO4. The background signal from wells lacking ATP can be subtracted from all ATP-stimulated wells, and IC50 values calculated.

[6] = molecular target: inactive (unphosphorylated) TIE2 kinase (Homo sapiens, UniProt Q02763); experiment: Inhibition of inactive TIE2 kinase; assay type: biochemical
Chain of inactive (unphosphorylated) TIE2 kinase (Q02763 23-1124): as above
Source text: as §3

[7] = molecular target: T2, recombinant human erbB-TIE2 chimeric receptor overexpressed in C6 rat glioma cells (Homo sapiens, UniProt Q02763); experiment: Cell-based TIE-2 kinase activity of chimeric receptor
T2 construct: erbB extracellular domain with TIE2 intracellular domain; extracellular domain of human EGFR (erbB); expressed in transfected cells; host or cells: C6 rat glioma cells
T2 sequence (Q02763 770-1124 limits assumed, change not shown): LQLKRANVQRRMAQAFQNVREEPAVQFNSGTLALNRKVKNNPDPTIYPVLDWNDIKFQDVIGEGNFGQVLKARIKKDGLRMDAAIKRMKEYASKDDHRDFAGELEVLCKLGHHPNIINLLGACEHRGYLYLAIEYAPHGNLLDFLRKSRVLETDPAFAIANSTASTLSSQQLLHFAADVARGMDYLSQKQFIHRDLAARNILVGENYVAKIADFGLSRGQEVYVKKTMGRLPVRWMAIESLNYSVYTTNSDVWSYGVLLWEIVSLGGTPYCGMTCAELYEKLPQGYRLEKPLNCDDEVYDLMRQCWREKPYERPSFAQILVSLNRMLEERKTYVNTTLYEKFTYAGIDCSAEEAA

COc1ccc(C(=O)c2cn(C(C)C)c3ncnc(N)c23)cc1NC(=O)Nc1ccc(Cl)cc1Cl.O=P(O)(O)O [Example 1, 1-[5-(4-Amino-7-isopropyl-7H-pyrrolo[2,3-d]pyrimidine-5-carbonyl)-2-methoxy-phenyl]-3-(2,4-dichloro-phenyl)-urea•Phosphate]
Hygroscopicity [1]: 0.8 percent (by weight)

COc1ccc(C(=O)c2cn(C(C)C)c3ncnc(N)c23)cc1NC(=O)Nc1ccc(Cl)cc1Cl.O=S(=O)(O)c1ccccc1 [Example 8, 1-[5-(4-Amino-7-isopropyl-7H-pyrrolo[2,3-d]pyrimidine-5-carbonyl)-2-methoxy-phenyl]-3-(2,4-dichloro-phenyl)-urea•Besylate]
Hygroscopicity [1]: 2.0 percent (by weight)

COc1ccc(C(=O)c2cn(C(C)C)c3ncnc(N)c23)cc1NC(=O)Nc1ccc(Cl)cc1Cl [1-[5-(4-amino-7-isopropyl-7H-pyrrolo[2,3-d]pyrimidine-5-carbonyl)-2-methoxy-phenyl]-3-(2,4-dichloro-phenyl)-urea]
AUC (aqueous concentration versus time) [2]: 100 µg·min/mL
MDC (Maximum Drug Concentration) [2]: 3 µg/mL
Cmax [3]: 191 ± 153 ng/mL
Tmax [3]: 4.5 ± 1 h
AUC(0-t) ([3]; read-out: AUC0-24): 1300 ± 940 ng·h/mL
Cmax [4]: 347 ± 556 ng/mL
Tmax [4]: 4 ± 2 h
AUC(0-t) ([4]; read-out: AUC0-24): 2810 ± 4550 ng·h/mL
IC50 [5]: 280 nM
Ki [6]: 23 nM
IC50 [7]: 4.67 nM

COc1ccc(C(=O)c2cn(C(C)C)c3ncnc(N)c23)cc1NC(=O)Nc1ccc(Cl)cc1Cl.CS(=O)(=O)O [Example 2, 1-[5-(4-Amino-7-isopropyl-7H-pyrrolo[2,3-d]pyrimidine-5-carbonyl)-2-methoxy-phenyl]-3-(2,4-dichloro-phenyl)-urea•Mesylate (Form B)]
Hygroscopicity [1]: 7.9 percent (by weight)

COc1ccc(C(=O)c2cn(C(C)C)c3ncnc(N)c23)cc1NC(=O)Nc1ccc(Cl)cc1Cl.CS(=O)(=O)O [Example 3, 1-[5-(4-Amino-7-isopropyl-7H-pyrrolo[2,3-d]pyrimidine-5-carbonyl)-2-methoxy-phenyl]-3-(2,4-dichloro-phenyl)-urea•Mesylate (Polymorph A)]
Hygroscopicity [1]: 1.6 percent (by weight)

COc1ccc(C(=O)c2cn(C(C)C)c3ncnc(N)c23)cc1NC(=O)Nc1ccc(Cl)cc1Cl.Cc1ccc(S(=O)(=O)O)cc1 [Example 9, 1-[5-(4-Amino-7-isopropyl-7H-pyrrolo[2,3-d]pyrimidine-5-carbonyl)-2-methoxy-phenyl]-3-(2,4-dichloro-phenyl)-urea•Tosylate]
Hygroscopicity [1]: 1.1 percent (by weight)
